Earlier results, collected in patent publication US20260014099A1, “SELF-PRESERVING TOPICAL PHARMACEUTICAL COMPOSITIONS COMPRISING DIETHYLENE GLYCOL MONOETHYL ETHER” (priority 2022, published 2026).

| Compound | Water Solubility |
| --- | --- |
| ivermectin | 4 mg/L |
| NC(N)=O [urea] | 1,190,000 mg/liter |
